# Experimental data from patent US8808664B2, “Lipidated glycoprotein particles and methods of use” (Ramot at Tel-Aviv University Ltd., priority 2004, dated 2014).
# Assays:
# [1] = tested on: HT29 colon adenocarcimona cell line; test: Treatment of multi-drug resistant cell lines, cell survival by MTT assay; type: cell-based, human; settings: 24-28 hours post-treatment
# Protocol: (§1) FIGS. 6A-6C show results for three cell lines, C26 (FIG. 6A), HT29 (FIG. 6B) and […], in terms of response to chemotherapeutic drugs encapsulated in collagen particles. The bars represent 60-64 repeats and the error bars represent the standard deviation. Three asterisks (***) indicate p<0.001.
# (§2) Cells were seeded onto 96 well plates, and the experiment was initiated at semi-confluency, usually 24 hours post seeding. For the test system, cells were given a selected dose of the drug of choice, which was entrapped in a collagen particle formulation (washed of excess free drug prior to use). The controls were given the same dose of free drug, and a dose of drug-free collagen particles at a dose similar to that of the test system. Cell survival was determined 24-28 hours post-treatment, using the MTT assay (Nutt, et al. 2000; and Larsen et al., 2000).
# [2] = tested on: C26 colon adenocarcimona cell line; test: as above; type: cell-based, mouse; settings: 24-28 hours post-treatment
# Protocol: as §1, §2
# glioma C6 line = test: as above; type: cell-based, rat; settings: 24-28 hours post-treatment
# Protocol: as §1, §2
# [3] = Efficiency of entrapment of drugs/bioactive agents in collagen disks or particles; type: physicochemical
# Protocol: Efficiency of entrapment of drugs/bioactive agents in the collagen disks or particles, and kinetics of drug efflux for small molecular weight drugs was determined utilizing absorption spectra (mostly in an ELISA plate reader), fluorescence emission spectra (mostly in a fluorescence plate reader), and HPLC. Half-life data was processed according to a theoretical framework previously developed for liposomes (Margalit et al., 1991), incorporated herein in its entirety) which yields the rate constant for drug efflux.
# [4] = Collagen Disks (1-20 mm in a diameter)
# [5] = Collagen particles (0.5-10 μm in diameter)
compound,measurement,setting,value
"COc1cccc2c1C(=O)c1c(O)c3c(c(O)c1C2=O)C[C@@](O)(C(=O)CO)C[C@@H]3O[C@H]1C[C@H](N)[C@H](O)[C@H](C)O1 [DOX, doxorubicin]","cell survival / response (MTT), FIGS. 6A-6C",[1],typical for the inherent form of MDR
same,"cell survival / response (MTT), FIGS. 6A-6C",[2],typical for the inherent form of MDR
same,"cell survival / response (MTT), FIGS. 6A-6C",glioma C6 line,typical for the inherent form of MDR
same,% Entrapment,[3]; [4],78.4 ± 2.4%
same,% Entrapment,[3]; [5],71.9 ± 0.4%
"CO[C@@]12[C@H](COC(N)=O)C3=C(C(=O)C(C)=C(N)C3=O)N1C[C@@H]1N[C@@H]12 [MMC, Mitomycin C]",% Entrapment,[3]; [4],80.2 ± 1.0%
same,% Entrapment,[3]; [5],67.3 ± 2.1%
"O=C(N[C@H](CO)[C@H](O)c1ccc([N+](=O)[O-])cc1)C(Cl)Cl [CAM, chloramphenicol]",% Entrapment,[3]; [4],89.5 ± 1.4%
same,% Entrapment,[3]; [5],94.1 ± 0.8%
Insulin: high molecular weight drug entrapped in collagen particles and disks,% Entrapment,[3]; [4],89.4 ± 2.3%
same,% Entrapment,[3]; [5],91.2 ± 0.7%
